Test [1] concerns RKO (RKOp27) human colon adenocarcinoma cells. Nature of the test: Alamar Blue cell viability assay, anti-proliferative/cytotoxic activity on proliferating RKOp27 cells. As to conditions: absence of Ponasterone A, 72 hours incubation, read-out: IC50 RKO p27 proliferating. It is filed as cell-based. The gist of the method: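 RKOp27 subclone of RKO cells, 4000/well in DMEM with 10% FCS, was treated 24 h after seeding with semi-log compound dilutions in quadruplicate for 72 h at 37 °C, 5% CO2. Alamar Blue fluorescence (ex 544/em 590 nm) was read as % viability of untreated cells, and IC50 was taken from concentration-effect curves.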
In general terms: Alamar Blue is a resazurin reagent that responds to reducing activity.

Test [2] concerns RKO colon adenocarcinoma cells (RKOp27) arrested by expression of ectopic p27Kip1. Description: Alamar Blue cell viability assay on RKOp27 cells arrested by Ponasterone A-induced p27Kip1 (cell cycle specific mode of action). It counts as cell-based. As to conditions: Homo sapiens, RKOp27, 72 h, cells arrested by p27Kip1 induced with 10 μM Ponasterone A, 72 hours incubation, read-out: IC50 RKO p27 arrested. The gist of the method:
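Viability measured by Alamar Blue fluorescence (ex 544, em 590 nm) after 72 h, 37 °C compound exposure in quadruplicate, normalized to untreated cells as 100%. Cells were p27Kip1-arrested RKOp27, induced with 10 μM Ponasterone A at seeding; compound added 24 h later.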

Consider 21 compounds from patent US7723523B2, “Tetrahydropyridothiophenes” (4SC AG, priority 2004, dated 2010).

Each structure is given as a SMILES string. Bounds are passed on as bounds.

In general, IC50 refers to the midpoint of a concentration-inhibition curve.

On to `CCOC(=O)N1CCc2c(sc(NC(=O)/C=C/c3cccnc3)c2C#N)C1` [Example 7, N-(6-Ethoxycarbonyl-3-cyano-4,5,6,7-tetrahydro-thieno[2,3-c]pyridin-2-yl)-3-pyridyl-acrylamide], for which the figures for the IC50 in test [1] and in test [2] were at most 2 µM and above 100 µM, respectively.

Regarding `N#Cc1c(NC(=O)/C=C/c2ccccc2)sc2c1CCN(C(=O)CCCO)C2` [Example 192, (E)-N-[3-Cyano-6-(4-hydroxy-butanoyl)-4,5,6,7-tetrahydro-thieno[2,3-c]pyridin-2-yl]-3-phenyl-acrylamide], the IC50 in test [1] was at most 2 µM; in test [2], at least 100 µM.

Turning to `CCOC(=O)N1CCc2c(sc(NC(=O)/C=C/c3ccoc3)c2C#N)C1` [Example 11, 3-Cyano-2-((E)-3-furan-3-yl-allanoylamino)-4,7-dihydro-5H-thieno[2,3-c]pyridine-6-carboxylic acid ethyl ester], the figures for the IC50 in test [1] and in test [2] were at most 2 µM and above 100 µM, respectively.

Regarding `COC(=O)COC(=O)N1CCc2c(sc(NC(=O)/C=C/c3ccccc3)c2C#N)C1` [Example 133, 3-Cyano-2-((E)-3-phenyl-allanoylamino)-4,7-dihydro-5H-thieno[2,3-c]pyridine-6-carboxylic acid methoxycarbonylmethyl ester], the IC50 in test [1] is at most 2 µM; in test [2] it was at least 100 µM.

Turning to `CCOC(=O)N1CCc2c(sc(NC(=O)/C=C/c3ccccc3C)c2C#N)C1` [Example 12, 3-Cyano-2-((E)-3-o-tolyl-allanoylamino)-4,7-dihydro-5H-thieno[2,3-c]pyridine-6-carboxylic acid ethyl ester], the IC50 in test [1] is at most 2 µM; in test [2] it was above 100 µM.

As to `N#Cc1c(NC(=O)/C=C/c2ccccc2)sc2c1CCN(C(=O)CO)C2` [Example 187, (E)-N-[3-Cyano-6-(2-hydroxy-ethanoyl)-4,5,6,7-tetrahydro-thieno[2,3-c]pyridin-2-yl]-3-phenyl-acrylamide], the IC50 in test [1] is at most 2 µM; in test [2], at least 100 µM.

For `N#Cc1c(NC(=O)/C=C/c2cccnc2)sc2c1CCN(C(=O)OCCc1ccccn1)C2` [Example 158, 3-Cyano-2-((E)-3-pyridin-3-yl-allanoylamino)-4,7-dihydro-5H-thieno[2,3-c]pyridine-6-carboxylic acid 2-pyridin-2-ylethyl ester], the IC50 in test [1] was at most 2 µM; in test [2] it was at least 100 µM.

As to `CCOC(=O)N1CCc2c(sc(NC(=O)/C=C/c3c(F)ccc(F)c3Cl)c2C#N)C1` [Example 57, 2-[(E)-3-(2-Chloro-3,6-difluoro-phenyl)-allanoylamino]-3-cyano-4,7-dihydro-5H-thieno[2,3-c]pyridine-6-carboxylic acid ethyl ester], the IC50 in test [1] is at most 2 µM; in test [2], at least 100 µM.

For the compound `N#Cc1c(NC(=O)/C=C/c2cccnc2)sc2c1CCN(C(=O)OCc1ccccn1)C2` [Example 149, 3-Cyano-2-((E)-3-pyridin-3-yl-allanoylamino)-4,7-dihydro-5H-thieno[2,3-c]pyridine-6-carboxylic acid pyridin-2-ylmethyl ester], the IC50 in test [1] is at most 2 µM; in test [2], at least 100 µM.

For `CCOC(=O)N1CCc2c(sc(NC(=O)/C=C/c3ccc(N(C)C)cc3)c2C#N)C1` [Example 26, 3-Cyano-2-[(E)-3-(4-dimethylamino-phenyl)-allanoylamino]-4,7-dihydro-5H-thieno[2,3-c]pyridine-6-carboxylic acid ethyl ester], the IC50 in test [1] is at most 2 µM; in test [2], above 100 µM.

Take `COCCOC(=O)N1CCc2c(sc(NC(=O)/C=C/c3ccccc3OC)c2C#N)C1` [Example 137, 3-Cyano-2-[(E)-3-(2-methoxy-phenyl)-allanoylamino]-4,7-dihydro-5H-thieno[2,3-c]pyridine-6-carboxylic acid 2-methoxy-ethyl ester]: the values for the IC50 in test [1] and in test [2] were at most 2 µM and at least 100 µM, respectively.

Take `N#Cc1c(NC(=O)/C=C/c2ccccc2)sc2c1CCN(C(=O)OCCCc1ccccn1)C2` [Example 124, 3-Cyano-2-((E)-3-phenyl-allanoylamino)-4,7-dihydro-5H-thieno[2,3-c]pyridin-6-carboxylic acid 3-pyridin-2-yl-propyl ester]: the IC50 in test [1] was at most 0.5 µM; in test [2], at least 50 µM.

`CCOC(=O)N1CCc2c(sc(NC(=O)/C=C/c3ccccc3OC(C)C)c2C#N)C1` [Example 98, 3-Cyano-2-[(E)-3-(2-isopropoxy-phenyl)-allanoylamino]-4,7-dihydro-5H-thieno[2,3-c]pyridine-6-carboxylic acid ethyl ester]: the IC50 in test [1] is at most 2 µM; in test [2], at least 100 µM.

Turning to `N#Cc1c(NC(=O)/C=C/c2ccco2)sc2c1CCN(C(=O)OCc1cccnc1)C2` [Example 242, 3-Cyano-2-((E)-3-furan-2-yl-allanoylamino)-4,7-dihydro-5H-thieno[2,3-c]pyridine-6-carboxylic acid pyridin-3-ylmethyl ester], the IC50 was at most 2 µM in test [1] and at least 100 µM in test [2].

On to `CCOC(=O)N1CCc2c(sc(NC(=O)/C=C/c3ccccc3OC(F)F)c2C#N)C1` [Example 231, 3-Cyano-2{(E), 3-[2-(1,1-difluoro-methoxy)-phenyl]-allanoylamino}-4,7-dihydro-5H-thieno[2,3-c]pyridine-6-carboxylic acid ethyl ester], for which the values for the IC50 in test [1] and in test [2] were at most 2 µM and at least 100 µM, respectively.

On to `COCCC(=O)N1CCc2c(sc(NC(=O)/C=C/c3ccccc3)c2C#N)C1` [Example 177, (E)-N-[3-Cyano-6-(3-methoxy-propanoyl)-4,5,6,7-tetrahydro-thieno[2,3-c]pyridin-2-yl]-3-phenyl-acrylamide], for which the IC50 was at most 2 µM in test [1] and at least 100 µM in test [2].

Turning to `CCOC(=O)CC(=O)N1CCc2c(sc(NC(=O)/C=C/c3ccccc3)c2C#N)C1` [Example 176, 3-[3-Cyano-2-((E)-3-phenyl-allanoylamino)-4,7-dihydro-5H-thieno[2,3-c]pyridin-6-yl]-3-oxo-propionic acid ethyl ester], the figures for the IC50 in test [1] and in test [2] were at most 2 µM and at least 100 µM, respectively.

In the case of `CC(C)(C)OC(=O)N1CCc2c(sc(NC(=O)/C=C/c3ccccc3)c2C#N)C1` [Example 2, N-(6-tert-Butoxycarbonyl-3-cyano-4,5,6,7-tetrahydro-thieno[2,3-c]pyridin-2-yl)-3-phenyl-acrylamide], the IC50 in test [1] is at most 2 µM; in test [2], above 100 µM.

In the case of `CC(C)(C)OC(=O)N1CCc2c(sc(NC(=O)/C=C/c3cccnc3)c2C#N)C1` [Example 32, 3-Cyano-2-((E)-3-pyridin-3-yl-allanoylamino)-4,7-dihydro-5H-thieno[2,3-c]pyridine-6-carboxylic acid tert-butyl ester], the IC50 in test [1] is at most 2 µM; in test [2], above 100 µM.

Turning to `CN(C)CCOC(=O)N1CCc2c(sc(NC(=O)/C=C/c3ccccc3)c2C#N)C1` [Example 113, 3-Cyano-2-((E)-3-phenyl-allanoylamino)-4,7-dihydro-5H-thieno[2,3-c]pyridine-6-carboxylic acid 2-dimethylamino-ethyl ester], the IC50 is at most 0.5 µM in test [1] and at least 50 µM in test [2].

In the case of `CCOC(=O)N1CCc2c(sc(NC(=O)/C=C/c3cccc([N+](=O)[O-])c3)c2C#N)C1` [Example 29, 3-Cyano-2-[(E)-3-(3-nitro-phenyl)-allanoylamino]-4,7-dihydro-5H-thieno[2,3-c]pyridine-6-carboxylic acid ethyl ester], the IC50 in test [1] is at most 2 µM; in test [2], above 100 µM.
